# Patent US7132427B2, “Quinazolines and uses thereof” (Ariad Pharmaceuticals, Inc., priority 2001, dated 2006)
# Experiment: Hydroxyapatite assay (hydroxyapatite adsorption chromatography, bone-targeting potential)
# Type: physicochemical
# Settings: K=(retention time-void time)/void, corrected using two reference compounds; TSK-Gel HA 1000 HPLC column; linear gradient 10 mM to 500 mM sodium phosphate, 0.15 N NaCl, pH 6.8
# Method: Hydroxyapatite is the principal mineral component of bone. Hydroxyapatite adsorption chromatography is used as an assay to evaluate the bone-targeting potential of both individual bone-targeting moieties (“monomers”) and of pharmaceuticals incorporating bone-targeting groups.
# Method: The rentention time of a test compound is measured using a linear gradient from 10 mM sodium phosphate, 0.15 N NaCl, pH=6.8 to 500 mM sodium phosphate, 0.15 N NaCl, […] on a TSK-Gel HA 1000 high pressure liquid chromatography column (7.5 mm×75 mm). The rentention time of the compound is expressed in terms of K=(retention time-void time)/void. This K value is corrected using two reference compounds to correct from inter-column and inter-system variation to obtain a K′ value.
# Reference Compounds: K′ values were determined for known bone targeted compounds, the bisphosphonate, alendronate and tetracycline.
compound,measurement,value
"NCCCC(O)(P(=O)(O)O)P(=O)(O)O [Alendronate, alendronate]",K′ value,3.7
